The results in this text go back to ChEMBL document CHEMBL2203061, “O-Aryl α,β-d-ribofuranosides: synthesis & highly efficient biocatalytic separation of anomers and evaluation of their Src kinase inhibitory activity” (Bioorg Med Chem, 2012).

The source made the active and inactive calls. The calls are words filed in the database; no cut-off is given here.

For one assay, the target named is T1, Proto-oncogene tyrosine-protein kinase Src (Homo sapiens, UniProt P12931). Put plainly: Inhibition of GST-tagged c-Src preincubated for 5 mins measured after 30 mins.
T1 sequence (P12931 2-536 limits assumed): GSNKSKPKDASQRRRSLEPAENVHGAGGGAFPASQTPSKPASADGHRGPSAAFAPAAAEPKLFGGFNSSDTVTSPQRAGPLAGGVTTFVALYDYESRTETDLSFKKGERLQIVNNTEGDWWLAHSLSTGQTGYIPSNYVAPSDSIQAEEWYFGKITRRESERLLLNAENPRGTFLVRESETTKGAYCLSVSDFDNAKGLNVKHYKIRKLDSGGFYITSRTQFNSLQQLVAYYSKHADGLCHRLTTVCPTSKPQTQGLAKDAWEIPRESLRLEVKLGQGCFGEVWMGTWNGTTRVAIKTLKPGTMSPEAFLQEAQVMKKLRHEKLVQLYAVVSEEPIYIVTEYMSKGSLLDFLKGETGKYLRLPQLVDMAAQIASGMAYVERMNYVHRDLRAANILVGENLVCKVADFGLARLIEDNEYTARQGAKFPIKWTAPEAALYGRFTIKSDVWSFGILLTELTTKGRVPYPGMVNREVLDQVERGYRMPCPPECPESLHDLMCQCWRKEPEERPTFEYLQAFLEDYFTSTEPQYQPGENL
On to `OC[C@H]1O[C@H](Oc2cccc3ccccc23)[C@H](O)[C@@H]1O`, for which it took 185 µM to reach half-maximal inhibition (IC50).

The molecule `OC[C@H]1O[C@@H](Oc2ccc(-c3ccccc3)cc2)[C@H](O)[C@@H]1O` came in with an IC50 of 125 µM.

Regarding `OC[C@H]1O[C@@H](Oc2cccc3ccccc23)[C@H](O)[C@@H]1O`, the IC50 came out at 1370 µM.

As to `COc1cccc(O[C@@H]2O[C@H](CO)[C@@H](O)[C@H]2O)c1`, the IC50 was 95 µM.

On to `Cc1cccc(O[C@H]2O[C@H](CO)[C@@H](O)[C@H]2O)c1`, for which the concentration for half-maximal inhibition (IC50) was found to be 451 µM. This IC50 is about 4.7-fold higher than that of the molecule before.

For `COc1ccc(O[C@@H]2O[C@H](CO)[C@@H](O)[C@H]2O)cc1`, the 50% inhibitory concentration (IC50) worked out at 484 µM.

Molecule `OC[C@H]1O[C@@H](Oc2ccc(O)cc2)[C@H](O)[C@@H]1O` displayed an IC50 of 272 µM.

Take `OC[C@H]1O[C@H](Oc2ccc3ccccc3c2)[C@H](O)[C@@H]1O`: the IC50 came out at 297 µM.

In turn, `Cc1ccc(O[C@@H]2O[C@H](CO)[C@@H](O)[C@H]2O)cc1` came in with an IC50 of 143 µM.

`OC[C@H]1O[C@@H](Oc2ccc3ccccc3c2)[C@H](O)[C@@H]1O` had an IC50 of 225 µM. This IC50 lies about 1.6-fold higher than the previous one.

For the next assay, the target named is T1, Proto-oncogene tyrosine-protein kinase Src. Briefly: Inhibition of GST-tagged c-Src up to 100 uM preincubated for 5 mins measured after 30 mins.
As for `COc1ccc(O[C@H]2O[C@H](CO)[C@@H](O)[C@H]2O)cc1`, the inhibition entry was “inactive”.

Consider `OC[C@H]1O[C@H](Oc2ccc(-c3ccccc3)cc2)[C@H](O)[C@@H]1O`, for which the inhibition result was “inactive”.

With `OC[C@H]1O[C@H](Oc2ccc(O)cc2)[C@H](O)[C@@H]1O`, the inhibition entry is “inactive”.

`COc1cccc(O[C@H]2O[C@H](CO)[C@@H](O)[C@H]2O)c1`: the inhibition entry is “inactive”.

The IC50 is the concentration that inhibits the measured activity by half. Lower therefore signals greater potency in that assay.
